Measurements reported in publication doi:10.1101/2022.09.20.508773v1 (biorxiv, 2022).

Biological target: T1, NΔ47-TPH2-R (Homo sapiens, UniProt Q8IWU9)
T1 sequence (Q8IWU9 48-145): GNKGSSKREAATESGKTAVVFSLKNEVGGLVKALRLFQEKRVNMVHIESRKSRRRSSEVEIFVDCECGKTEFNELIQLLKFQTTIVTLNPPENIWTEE
Experiment: protein-observed NMR titration, 1H-15N HSQC, 2D line-shape analysis
Type: binding

- Kd: 40.8 ± 0.8 µM
SMILES: N[C@@H](Cc1ccccc1)C(=O)O [L-Phe]
